# Tested on: obscurin-KD MCF10A cells
# Assay: Sensitivity of obscurin-KD MCF10A cells to chemotherapeutic drugs (cell viability)
# Format: cell-based, human
# Conditions: compared to control cells
# Text: Moreover, loss of giant obscurins results in major cytoskeletal alterations leading to increased cell growth, motility and invasion. […] Thus, breast cancer cells may have different responses to cytoskeletal-targeting chemotherapies depending on the relative expression of giant obscurins.
row,Compound,sensitivity of obscurin-depleted MCF10A cells to the drug
1,COc1cc([C@@H]2c3cc4c(cc3[C@@H](O[C@@H]3O[C@@H]5CO[C@@H](C)O[C@H]5[C@H](O)[C@H]3O)[C@H]3COC(=O)[C@H]23)OCO4)cc(OC)c1O [etoposide],reduced sensitivity
2,CC(=O)O[C@H]1C(=O)[C@@]2(C)[C@H]([C@H](OC(=O)c3ccccc3)[C@]3(O)C[C@H](OC(=O)[C@H](O)[C@@H](NC(=O)c4ccccc4)c4ccccc4)C(C)=C1C3(C)C)[C@]1(OC(C)=O)CO[C@@H]1C[C@@H]2O [paclitaxel],reduced sensitivity

# From patent US9739784B2, “Giant obscurins and uses thereof in cancer prognosis and therapy” (UNIVERSITY OF MARYLAND, BA, priority 2013, dated 2017)
